Data taken from patent US9168243B2, “Pharmaceutical compositions comprising 8-substituted dibenzylbutyrolactone lignans” (priority 2010, dated 2015).

How the values were obtained:
EGF receptor (EGFR) = experiment: EGF-induced EGFR tyrosine 1068 phosphorylation, Western blot; format: cell-based; details: LNCaP; pretreatment with 100 μM NTG; 20 ng/ml EGF, 5 minutes
Experimental: The cells were treated with 0-100 μM lignans or solvent control for indicated times. Human recombinant isoleucin-zipper TRAIL (izTRAIL; kindly provided by Professor Henning Walczak) was used at 0-1 μg/ml with an incubation time of 20 hours. Prior to 10 minutes treatment with 10 nM IGF-1 (Millipore) or 10 nM insulin (Sigma) the cells were serum-starved (1% FCS) overnight. EGFR stimulation was performed on serum-starved cells with 20 ng/ml EGF for 5 minutes (a kind gift from Professor Klaus Elenius laboratory).
Whole cell lysates were prepared by lysing floating and attached cells in Laemmli sample buffer and boiling the samples for 10 minutes. Proteins were separated by SDS-PAGE and transferred on PVDF membrane (Millipore). Western blotting was performed using antibodies against Akt, phospho-Akt (Ser473), GSK-3β, phospho-GSK-3β (Ser9) and phospho-EGF receptor Tyr(1068) (Cell Signalling Technology), Actin (clone AC-40; Sigma-Aldrich), PI3K p85α (clone 4/PI3-Kinase; BD Pharmingen), EGF receptor, Insulin receptor β and IGF-I receptor β (Santa Cruz Biotechnology), and Phospho-tyrosine (clone 4G10; Millipore). HRP-conjugated secondary antibodies were from Southern Biotechnology Associates, Promega, and Amersham Biosciences. The results were visualized using the ECL method (Amersham Biosciences) on x-ray film. […]

[1] = tested on: non-malignant prostate epithelial RWPE-1 cells; experiment: Caspase-3 activation by flow cytometry in a non-malignant prostate cell line; format: cell-based; details: 40 μM NTG 1 h before izTRAIL in different concentrations, 20 h
Experimental: The LNCaP prostate cancer cells (clone FGC; EACC) were cultured in RPMI-1640 medium (Sigma-Aldrich) supplemented with 10% fetal calf serum (BioClear), 2 mM L-glutamin, 100 U/ml penicillin, 100 μg/ml streptomycin and 1 mM sodium pyruvate (Sigma-Aldrich). One day prior to treatment medium was changed to phenol red free RPMI-1640 (Gibco) with or without 1 nM synthetic androgen (Mibolerone). This medium was supplemented with 10% charcoal/dextran treated fetal bovine serum (Hyclone), L-glutamine, penicillin and streptomycin. SV40 transformed prostate epithelial RWPE-1 cell line was kindly provided by Professor Olli Kallioniemi. […]
Flow cytometric analysis of apoptosis with HTS platform was performed on cells that were plated on a 96-well plate as triplicate samples. […] After 10 minutes incubation at room temperature, the plate was analyzed with LSRII flow cytometer equipped with HTS platform (PE-A channel). […] The plate was analyzed with LSRII flow cytometer equipped with HTS platform (FSC, PE-A channel). […] Activated caspase-3 in cells was labeled with phycerythrin (PE)-conjugated antibody according to manufacturer's protocol (BD Pharmingen) and analyzed by FacsCalibur flow cytometer (FL-2, FSC). […]

[2] = tested on: DMBA-induced mammary tumors; details: cited from earlier work
[3] = cited from earlier work
LNCaP cells [4] = experiment: Caspase-3 activation by flow cytometry, TRAIL with or without NTG; format: cell-based; details: for percentage of cells with activated caspase-3 (maximum): combination of 40 μM NTG and TRAIL, 20 h
Experimental: Flow cytometric analysis of apoptosis with HTS platform was performed on cells that were plated on a 96-well plate as triplicate samples. After 24 hours in androgen-deprived conditions, the cells were pretreated with 40 μM lignans or lignan derivatives for 1 hour prior to addition of 10 ng/ml izTRAIL. Twenty hours later the plate was centrifuged with a culture plate rotor (1000 rpm, 3 minutes). For analysis of nuclear fragmentation, propidium iodide (PI) buffer (40 mM Na-citrate, 0.3% Triton X-100, 50 μg/ml PI; Sigma) was added to the wells. After 10 minutes incubation at room temperature, the plate was analyzed with LSRII flow cytometer equipped with HTS platform (PE-A channel). The fraction of sub-G0/G1 events (nuclear fragmentation) was gated as a measure of apoptotic cell death. For detection of mitochondrial depolarization, the cells were detached by trypsinization of the cells and incubated in 20 nM tetramethylrhodamine (TMRM; Invitrogen) in warm culture medium for 10 minutes before analysis. The plate was analyzed with LSRII flow cytometer equipped with HTS platform (FSC, PE-A channel). The cells with decreased TMRM incorporation were considered to have undergone mitochondrial membrane depolarization. Activated caspase-3 in cells was labeled with phycerythrin (PE)-conjugated antibody according to manufacturer's protocol (BD Pharmingen) and analyzed by FacsCalibur flow cytometer (FL-2, FSC).
As NTG was identified as the most efficient TRAIL-sensitizing lignan, we analyzed the ability of NTG to affect the efficacy of different TRAIL concentrations in triggering of caspase-3 activation (FIG. 2A). The TRAIL resistant LNCaP cells were cultured in androgen-supplied and androgen-deprived conditions to simulate the effects of androgen-deprivation therapy, and treated for 20 h with TRAIL alone or with the combination of 40 μM NTG and TRAIL. The percentage of cells with activated caspase-3 increased from maximum of 15% to 60% for androgen-deprived, and from 13% to 30% for androgen-supplied cells (Mean±SEM; n≧3) (FIG. 2A).

LNCaP cells [5] = experiment: Clonogenic assay; format: cell-based; details: 11 days
Experimental: Five hundred LNCaP cells were plated in 1 ml of culture medium and let to adhere prior to addition of the indicated treatments. After 11 days of incubation, cell colonies were fixed with glutaraldehyde (6.0% v/v), stained with crystal violet (0.5% w/v) and imaged using a digital camera.
To investigate the effects of NTG alone and in combination with TRAIL on colony formation ability, the LNCaP cells were plated in low confluency and treated for 11 days.

For `COc1cc(CC2COC(=O)C2(O)Cc2ccc(O)c(OC)c2)ccc1O` (stereo not drawn) [NTG, Nortrachelogenin], the “EGF-induced tyrosine phosphorylation of EGFR” value (EGF receptor (EGFR)) is given as “attenuated the EGF-induced tyrosine phosphorylation of EGFR”, the “sensitization of non-malignant cells to TRAIL (caspase-3 activation)” value [1] is given as “did not display any sensitization to TRAIL” and the “growth of DMBA-induced mammary tumors” value ([2]; during promotion and early progression) is given as “did not inhibit the growth of DMBA-induced mammary tumors”. For the same compound, the endocrine-modulatory effects ([2]; long-term experiments) was “weak endocrine-modulatory effects”, the “conversion into the mammalian lignans” value ([3]; in vivo) was “not known to be converted into the mammalian lignans, ENL or END” and the absorption and excretion ([3]; urine) was “absorbed and excreted in urine as such”. The “sensitizing effect when medium change directly precedes TRAIL receptor activation” value (LNCaP cells [4]; 1 hour pretreatment with 40 μM NTG, culture medium replaced before TRAIL, androgen-deprived and androgen-supplied) was “completely abolished”, the “effect of increasing the NTG dose on sensitization to TRAIL” value (LNCaP cells [4]; NTG 40 μM to 100 μM, 10 ng/ml TRAIL) was “did not induce further sensitization” and the “percentage of cells with activated caspase-3 (maximum)” value (LNCaP cells [4]; androgen-deprived LNCaP) was 60%. For the same compound, the “percentage of cells with activated caspase-3 (maximum)” value (LNCaP cells [4]; androgen-supplied LNCaP) was 30%, the “colony formation ability, single agent” value (LNCaP cells [5]; 10 ng/ml TRAIL or 40 μM NTG alone) was “clearly inhibited the growth of the plated cells” and the “colony formation ability, NTG and TRAIL in combination” value (LNCaP cells [5]; 40 μM NTG and 10 ng/ml TRAIL) was “significant death of the cells that were seeded”.
